Measured values reported in patent US20120101100A1 (priority 2008, published 2012).
pIC50: −log10 of the molar value.

biological target: S. aureus GyrB ATPase (Staphylococcus aureus, UniProt P0A0K8); assay: S. aureus (SAU) GyrB ATPase inhibition, malachite green phosphate detection (E. coli GyrA + S. aureus GyrB); format: biochemical; conditions: 10 compound concentrations; 500 μM ATP
How it was run: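 E. coli GyrA and S. aureus GyrB (1.25 nM each) with 500 μM ATP and 5 μg/ml sheared salmon sperm DNA in 50 mM Hepes pH 7.5, 8.0 mM MgCl2. Released phosphate detected with ammonium molybdate/malachite green at 650 nm; 2% DMSO as 0% and 2 μM novobiocin as 100% inhibition; IC50 from 10 concentrations.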

Chain of S. aureus GyrB ATPase (P0A0K8 whole entry): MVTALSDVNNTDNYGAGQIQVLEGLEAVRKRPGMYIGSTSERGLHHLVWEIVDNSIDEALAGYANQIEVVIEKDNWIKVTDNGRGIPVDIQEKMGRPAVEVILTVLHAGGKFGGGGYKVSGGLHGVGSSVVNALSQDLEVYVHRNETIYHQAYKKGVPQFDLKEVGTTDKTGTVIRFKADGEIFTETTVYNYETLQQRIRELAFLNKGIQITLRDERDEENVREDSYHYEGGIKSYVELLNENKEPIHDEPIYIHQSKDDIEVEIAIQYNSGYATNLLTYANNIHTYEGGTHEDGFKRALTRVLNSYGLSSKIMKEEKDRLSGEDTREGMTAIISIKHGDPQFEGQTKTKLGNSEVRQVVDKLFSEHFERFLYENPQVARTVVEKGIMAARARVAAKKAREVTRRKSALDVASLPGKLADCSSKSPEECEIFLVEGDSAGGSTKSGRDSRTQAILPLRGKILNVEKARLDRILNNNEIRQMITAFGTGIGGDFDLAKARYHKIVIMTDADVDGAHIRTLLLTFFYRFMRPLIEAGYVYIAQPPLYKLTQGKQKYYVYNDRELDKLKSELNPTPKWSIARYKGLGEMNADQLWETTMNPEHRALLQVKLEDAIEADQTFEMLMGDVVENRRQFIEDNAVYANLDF
Chain of S. aureus GyrB ATPase (P0AES4 whole entry, further chain): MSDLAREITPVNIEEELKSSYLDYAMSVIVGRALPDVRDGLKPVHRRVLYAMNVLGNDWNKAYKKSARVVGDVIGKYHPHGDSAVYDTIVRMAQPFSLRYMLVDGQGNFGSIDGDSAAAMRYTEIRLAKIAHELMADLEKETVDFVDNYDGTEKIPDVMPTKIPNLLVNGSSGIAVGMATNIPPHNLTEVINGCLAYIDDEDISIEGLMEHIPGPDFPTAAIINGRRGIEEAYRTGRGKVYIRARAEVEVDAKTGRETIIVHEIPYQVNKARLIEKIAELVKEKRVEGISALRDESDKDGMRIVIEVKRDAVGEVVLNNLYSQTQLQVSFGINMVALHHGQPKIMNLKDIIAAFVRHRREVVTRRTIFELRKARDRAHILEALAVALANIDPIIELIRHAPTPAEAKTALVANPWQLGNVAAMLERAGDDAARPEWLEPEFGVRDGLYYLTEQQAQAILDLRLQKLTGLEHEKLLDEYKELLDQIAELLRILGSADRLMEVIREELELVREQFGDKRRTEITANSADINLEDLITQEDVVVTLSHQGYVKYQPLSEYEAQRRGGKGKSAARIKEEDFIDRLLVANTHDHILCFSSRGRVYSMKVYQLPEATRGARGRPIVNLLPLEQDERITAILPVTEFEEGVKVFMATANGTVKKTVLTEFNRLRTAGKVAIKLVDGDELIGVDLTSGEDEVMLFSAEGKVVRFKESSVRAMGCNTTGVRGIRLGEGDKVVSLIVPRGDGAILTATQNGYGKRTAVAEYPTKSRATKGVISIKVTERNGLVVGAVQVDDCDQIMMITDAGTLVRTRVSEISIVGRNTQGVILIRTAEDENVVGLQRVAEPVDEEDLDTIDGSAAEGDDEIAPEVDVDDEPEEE

Going from “1-Ethyl-3-(5′-(5-oxo-2,5-dihydro-1H-pyrazol-3-yl)-3,3′-bipyridin-6-yl)urea [Example 17]” to `CCNC(=O)Nc1cc(-c2nc(C(F)(F)F)cs2)c(-c2cccc(C#N)n2)cn1` [Example 32, 1-(6-cyano-4′-(4-(trifluoromethyl)thiazol-2-yl)-2,3′-bipyridin-6′-yl)-3-ethylurea], the pIC50 falls from 8.00 to 7.21 (0.79 log units). The first is the more potent here.

same assay, conditions: compound concentration of 1.0 μM unless otherwise noted; average value where assay was carried out more than once

For “1-Ethyl-3-(5′-(5-oxo-2,5-dihydro-1H-pyrazol-3-yl)-3,3′-bipyridin-6-yl)urea [Example 17]”, the “S. aureus (SAU) GyrB ATPase % Inhibition” value was 102.2%.

same assay, conditions: compound concentration of 1.0 μM unless otherwise noted; average value where assay was carried out more than once; read-out: S. aureus (SAU) GyrB ATPase % Inhibition

First: CCNC(=O)Nc1cc(-c2nc(-c3cnn(C)c3)cs2)c(-c2cc(-c3nnc(C)o3)cnc2OC2CCOCC2)cn1 [Example 231, 1-ethyl-3-(5′-(5-methyl-1,3,4-oxadiazol-2-yl)-4-(4-(1-methyl-1H-pyrazol-4-yl)thiazol-2-yl)-2′-(tetrahydro-2H-pyran-4-yloxy)-3,3′-bipyridin-6-yl)urea]
Second: CCNC(=O)Nc1cc(-c2nc(C(F)(F)F)cs2)c(-c2cc(-c3nnc(C)o3)cnc2OCC2CC2)cn1 [Example 234, 1-(2′-(cyclopropylmethoxy)-5′-(5-methyl-1,3,4-oxadiazol-2-yl)-4-(4-(trifluoromethyl)thiazol-2-yl)-3,3′-bipyridin-6-yl)-3-ethylurea]
The inhibition at 1 µM of the first is lower: 96% for the first, 105% for the second.

Compared with `CCNC(=O)Nc1cc(-c2nc(C(F)(F)F)cs2)c(-c2cc(OCC3CC3)nc(-c3n[nH]c(=O)o3)c2)cn1` [Example 83, 1-(2′-(cyclopropylmethoxy)-6′-(5-oxo-4,5-dihydro-1,3,4-oxadiazol-2-yl)-4-(4-(trifluoromethyl)thiazol-2-yl)-3,4′-bipyridin-6-yl)-3-ethylurea], `CCNC(=O)Nc1cc(-c2nc(C(F)(F)F)cs2)c(-c2cc(OCCN(C)C)nc(-c3n[nH]c(=O)o3)c2)cn1` [Example 92, 1-(2′-(2-(dimethylamino)ethoxy)-6′-(5-oxo-4,5-dihydro-1,3,4-oxadiazol-2-yl)-4-(4-(trifluoromethyl)thiazol-2-yl)-3,4′-bipyridin-6-yl)-3-ethylurea] is higher in inhibition at 1 µM: 94% for the first, 104% for the second.

Compared with `CCNC(=O)Nc1cc(-c2nc(C(F)(F)F)cs2)c(-c2cncc(-c3nnc(C)n3N)c2)cn1` [Example 283, 1-(5′-(4-amino-5-methyl-4H-1,2,4-triazol-3-yl)-4-(4-(trifluoromethyl)thiazol-2-yl)-3,3′-bipyridin-6-yl)-3-ethylurea], `CCNC(=O)Nc1cc(-c2nc(C(F)(F)F)cs2)c(-c2cncc(-c3c[nH]nc3C)c2)cn1` [Example 132] is lower in inhibition at 1 µM: 94% for the first, 92% for the second.

Compared with `CCNC(=O)Nc1cc(-c2nc(C(F)(F)F)cs2)c(-c2cncc(-c3nnc(N4CCC(O)CC4)o3)c2)cn1` [Example 180], `CCNC(=O)Nc1cc(-c2nc(C(F)(F)F)cs2)c(-c2cncc(-c3nnc(N4CC[C@H](O)C4)o3)c2)cn1` [Example 179] is higher in inhibition at 1 µM: 96% for the first, 101% for the second.

Compared with `CCNC(=O)Nc1cc(-c2nc(C(F)(F)F)cs2)c(-c2nc(C)cc(-c3n[nH]c(=O)o3)n2)cn1` [Example 34, 1-ethyl-3-(5-(4-methyl-6-(5-oxo-4,5-dihydro-1,3,4-oxadiazol-2-yl)pyrimidin-2-yl)-4-(4-(trifluoromethyl)thiazol-2-yl)pyridin-2-yl)urea], `CCNC(=O)Nc1cc(-c2nc(C(F)(F)F)cs2)c(-c2cncc(-c3n[nH]c(=O)o3)c2)cn1` [Example 6, 1-ethyl-3-(5′-(5-oxo-4,5-dihydro-1,3,4-oxadiazol-2-yl)-4-(4-(trifluoromethyl)thiazol-2-yl)-3,3′-bipyridin-6-yl)urea] is higher in inhibition at 1 µM: 93% for the first, 106% for the second.

First: CCNC(=O)Nc1cc(-c2nc(C(F)(F)F)cs2)c(-c2cncc(-c3nnc(N4CC(O)C4)o3)c2)cn1 [Example 182]
Second: CCNC(=O)Nc1cc(-c2nc(C(F)(F)F)cs2)c(-c2cncc(-c3nnc(C4CC4)o3)c2)cn1 [Example 166, 1-(5′-(5-Cyclopropyl-1,3,4-oxadiazol-2-yl)-4-(4-(trifluoromethyl)thiazol-2-yl)-3,3′-bipyridin-6-yl)-3-ethylurea]
The inhibition at 1 µM of the first is higher: 99% for the first, 72% for the second.

Going from `CCNC(=O)Nc1cc(-c2nc(C(F)(F)F)cs2)c(-c2cncc(-c3nnc(N(CC)CC)o3)c2)cn1` [Example 267, 1-(5′-(5-(diethylamino)-1,3,4-oxadiazol-2-yl)-4-(4-(trifluoromethyl)thiazol-2-yl)-3,3′-bipyridin-6-yl)-3-ethylurea] to `CCNC(=O)Nc1cc(-c2nc(C(F)(F)F)cs2)c(-c2cncc(-c3nnc(C(C)(C)O)o3)c2)cn1` [Example 263, 1-ethyl-3-(5′-(5-(2-hydroxypropan-2-yl)-1,3,4-oxadiazol-2-yl)-4-(4-(trifluoromethyl)thiazol-2-yl)-3,3′-bipyridin-6-yl)urea], the inhibition at 1 µM rises from 98% to 100%.

Going from `CCNC(=O)Nc1cc(-c2nc(C(F)(F)F)cs2)c(-c2cncc(-c3nnn[nH]3)c2)cn1` [Example 3, 1-(5′-(2H-tetrazol-5-yl)-4-(4-(trifluoromethyl)thiazol-2-yl)-3,3′-bipyridin-6-yl)-3-ethylurea] to `CCNC(=O)Nc1cc(-c2nc(C(F)(F)F)cs2)c(-c2cncc(-c3nnc(C(C)O)o3)c2)cn1` (stereo not shown) [Example 275, 1-ethyl-3-(5′-(5-(1-hydroxyethyl)-1,3,4-oxadiazol-2-yl)-4-(4-(trifluoromethyl)thiazol-2-yl)-3,3′-bipyridin-6-yl)urea], the inhibition at 1 µM rises from 88% to 98%.

Compared with `CCNC(=O)Nc1cc(-c2nc(C(F)(F)F)cs2)c(-c2cc(-c3n[nH]c(=O)o3)cnc2CC)cn1` [Example 71, 1-ethyl-3-(2′-ethyl-5′-(5-hydroxy-1,3,4-oxadiazol-2-yl)-4-(4-(trifluoromethyl)thiazol-2-yl)-3,3′-bipyridin-6-yl)urea], `CCNC(=O)Nc1cc(-c2nc(C(F)(F)F)cs2)c(-c2cc(-c3n[nH]c(=O)o3)cnc2OCC2CC2)cn1` [Example 216] is higher in inhibition at 1 µM: 93% for the first, 96% for the second.

First: CCNC(=O)Nc1cc(-c2nc(C(F)(F)F)cs2)c(-c2cncc(-c3nnc(N4CCN(C(C)=O)CC4)o3)c2)cn1 [Example 156]
Second: CCNC(=O)Nc1cc(-c2nc(C(F)(F)F)cs2)c(-c2cncc(-c3nnc(C(=O)N(C)C)o3)c2)cn1 [Example 274, 5-(6′-(3-ethylureido)-4′-(4-(trifluoromethyl)thiazol-2-yl)-3,3′-bipyridin-5-yl)-N,N-dimethyl-1,3,4-oxadiazole-2-carboxamide]
The inhibition at 1 µM of the first is lower: 95% for the first, 99% for the second.

Going from `CCNC(=O)Nc1cc(-c2nc(C(F)(F)F)cs2)c(-c2cccc(-n3cccn3)n2)cn1` [Example 29] to `CCNC(=O)Nc1cc(-c2nc(C(F)(F)F)cs2)c(-c2cccc(C#N)n2)cn1` [Example 32, 1-(6-cyano-4′-(4-(trifluoromethyl)thiazol-2-yl)-2,3′-bipyridin-6′-yl)-3-ethylurea], the inhibition at 1 µM falls from 114% to 106%.

First: CCNC(=O)Nc1cc(-c2nnc(-c3ccccc3)o2)c(-c2cncc(-c3n[nH]c(=O)o3)c2)cn1 [Example 196]
Second: CCNC(=O)Nc1cc(-c2nc(-c3ccccc3)cs2)c(-c2cncc(-c3n[nH]c(=O)o3)c2)cn1 [Example 11, 1-ethyl-3-(5′-(5-oxo-4,5-dihydro-1,3,4-oxadiazol-2-yl)-4-(4-phenylthiazol-2-yl)-3,3′-bipyridin-6-yl)urea]
The inhibition at 1 µM of the first is higher: 118% for the first, 107% for the second.

Going from `O=C(NCC(F)(F)F)Nc1cc(-c2nc(C(F)(F)F)cs2)c(-c2cncc(-c3n[nH]c(=O)o3)c2)cn1` [Example 49, 1-(5′-(5-oxo-4,5-dihydro-1,3,4-oxadiazol-2-yl)-4-(4-(trifluoromethyl)thiazol-2-yl)-3,3′-bipyridin-6-yl)-3-(2,2,2-trifluoroethyl)urea] to `O=C(Nc1cc(-c2nc(C(F)(F)F)cs2)c(-c2cncc(-c3n[nH]c(=O)o3)c2)cn1)NC1CCCCC1` [Example 46, 1-cyclohexyl-3-(5′-(5-oxo-4,5-dihydro-1,3,4-oxadiazol-2-yl)-4-(4-(trifluoromethyl)thiazol-2-yl)-3,3′-bipyridin-6-yl)urea], the inhibition at 1 µM falls from 99% to -1%.

First: CCNC(=O)Nc1cc(-c2nc(-c3cccnc3F)cs2)c(-c2cncc(-c3n[nH]c(=O)o3)c2)cn1 [Example 204]
Second: CCNC(=O)Nc1cc(-c2nc(C(F)(F)F)cs2)c(-c2cncc(-c3c[nH]c(=O)[nH]c3=O)c2)cn1 [Example 131, 1-(5′-(2,4-Dioxo-1,2,3,4-tetrahydropyrimidin-5-yl)-4-(4-(trifluoromethyl)thiazol-2-yl)-3,3′-bipyridin-6-yl)-3-ethylurea]
The inhibition at 1 µM of the first is higher: 101% for the first, 93% for the second.

First: CCNC(=O)Nc1cc(-c2nc(C(F)(F)F)cs2)c(-c2cc(-c3nnc(C)o3)cnc2OCCN(C(C)C)C(C)C)cn1 [Example 116, 1-(2′-(2-(diisopropylamino)ethoxy)-5′-(5-methyl-1,3,4-oxadiazol-2-yl)-4-(4(trifluoromethyl)thiazol-2-yl)-3,3′-bipyridin-6-yl)-3-ethylurea]
Second: CCNC(=O)Nc1cc(-c2nc(C(F)(F)F)cs2)c(-c2cc(OC(C)C)nc(-c3nnc(C)o3)c2)cn1 [Example 80, 1-ethyl-3-(2′-isopropoxy-6′-(5-methyl-1,3,4-oxadiazol-2-yl)-4-(4-(trifluoromethyl)thiazol-2-yl)-3,4′-bipyridin-6-yl)urea]
The inhibition at 1 µM of the first is lower: 90% for the first, 96% for the second.

Compared with `CCNC(=O)Nc1cc(-c2nc(C(F)(F)F)cs2)c(-c2cncc(-c3nnc(NCCN(C)C)o3)c2)cn1` [Example 157], `CCNC(=O)Nc1cc(-c2nc(C(F)(F)F)c(C(=O)NC3CCCC3)s2)c(-c2cncc(-c3n[nH]c(=O)o3)c2)cn1` [Example 67, N-cyclopentyl-2-(6-(3-ethylureido)-5′-(5-oxo-4,5-dihydro-1,3,4-oxadiazol-2-yl)-3,3′-bipyridin-4-yl)-4-(trifluoromethyl)thiazole-5-carboxamide] is lower in inhibition at 1 µM: 96% for the first, 93% for the second.

Compared with `CCNC(=O)Nc1cc(-c2nc(-c3ccccc3)cs2)c(-c2cncc(S(N)(=O)=O)c2)cn1` [Example 128], `CCNC(=O)Nc1cc(-c2nc(-c3cccc(OC)n3)cs2)c(-c2cncc(S(N)(=O)=O)c2)cn1` [Example 247, 6′-(3-ethylureido)-4′-(4-(6-methoxypyridin-2-yl)thiazol-2-yl)-3,3′-bipyridine-5-sulfonamide] is higher in inhibition at 1 µM: 92% for the first, 100% for the second.
